Test system: HMG-CoA reductase
Experiment: HMG-CoA Reductase Inhibition Assay (in vitro)
Assay type: biochemical, rat
Settings: relative to compactin, arbitrarily assigned a value of 100; IC50 compared with that of compactin determined simultaneously; tested as sodium salt of dihydroxy acid form
Protocol: The intrinsic HMG-CoA reductase inhibition activity of the claimed compounds is measured in the in vitro protocol published in J. Med. Chem., 28, P. 347-358 (1985) and described below:
Isolation of HMG-CoA Reductase. Male Holtzman Sprague-Dawley rate (225-250 g) were kept on reversed lighting and fed Purina rat chow containing 3% cholestyramine for 7 days preceding their sacrifice by CO2 asphyxiation. Livers were removed 6 hours into the dark cycle and used immediately to prepare microsomes. […]
Test compounds or compactin (after first being converted to the sodium salt of their dihydroxy acid form in situ by addition of 1 N NaOH (1 equiv)) were added to the assay system in 10-μL volumes at multiconcentration levels. […] Five milliliters of Aquasol-2 (New England Nuclear) was added to each vial, and radioactivity was measured in a Packard Tri Carb Prias scintillation counter. IC50 values were determined by plotting percentage inhibition against test compounds concentration and fitting a straight line to the resulting data by using the least-squares method. For estimation of relative inhibitory potencies, compactin was assigned a value of 100 and the IC50 value of the test compound was compared with that of compactin determined simultaneously.

## 6(R)-[2-8(S)-(1-Ethoxycarbonylcyclobutanecarbonyloxy)-2(S),6(R)-dimethyl-1,2,6,7,8,8a-(R)-hexahydronaphthyl-1(S)]ethyl]-4(R)-hydroxy-3,4,5,6-tetrahydro-2H-pyrane-2-one
  Relative Potency: 65

## 6(R)-[2-[8(S)-(1-Ethoxycarbonylcyclopropanecarbonyloxy)-2(S),6(R)-dimethyl-1,2,6,7,8,8a (R)-hexahydronaphthyl-1(S)]ethyl]-4(R)-hydroxy-3,4,5,6-tetrahydro-2H-pyran-2-one
  Relative Potency: 11

From patent US4876279A, “Antihypercholesterolemic compounds” (Merck & Co., Inc., priority 1988, dated 1989)
